Patent US4626526A, “(S)-N^6 -2-hydroxypropyladenosines” (Warner-Lambert Company, priority 1984, dated 1986)

Tests used:
[1] = biological target: T1, adenosine A1 receptor (Rattus norvegicus, UniProt P25099); assay: Adenosine Receptor Binding, A1 Receptor Affinity (RBA1), [3H]-CHA; conditions: rat brain membranes, 1.0 nM [3H]-CHA
T1 construct: Whole brain minus cerebellum and brainstem from male Long Evans rats; from tissue; host or cells: whole brain minus cerebellum and brainstem, male Long Evans rats, membranes
T1 sequence (P25099 1-326): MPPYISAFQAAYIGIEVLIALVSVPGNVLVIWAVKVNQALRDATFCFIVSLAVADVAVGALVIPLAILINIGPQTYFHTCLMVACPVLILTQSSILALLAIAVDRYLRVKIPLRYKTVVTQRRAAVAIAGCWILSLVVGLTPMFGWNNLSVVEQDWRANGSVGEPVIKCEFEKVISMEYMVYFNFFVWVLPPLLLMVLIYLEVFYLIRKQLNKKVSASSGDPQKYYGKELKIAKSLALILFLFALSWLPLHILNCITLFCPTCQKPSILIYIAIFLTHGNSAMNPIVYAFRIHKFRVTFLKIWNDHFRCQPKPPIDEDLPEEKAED
Protocol: Whole brain minus cerebellum and brainstem from male Long Evans rats (150-200 g) was homogenized in 30 volumes of ice-cold 0.05M Tris-HCl buffer pH 7.7 using a Brinkman Polytron PT-10, (setting number 6 for 20 seconds) and centrifuged for ten minutes at 20,000 × g (Sorvall RC-2), 4° C. The supernatant was discarded, and the pellet was resuspended and centrifuged as before. The pellet was resuspended in 20 ml Tris-HCl buffer containing two International Units/ml of adenosine deaminase (Sigma type III from calf intestinal mucosa), incubated at 37° C. for 30 minutes, then subsequently at 0° C. for ten minutes. […]
Tissue homogenate (10 mg/ml) was incubated in 0.05M Tris-HCl buffer pH 7.7 containing 1.0 nM [^3 H]-N^6 -cyclohexyladenosine (^3 H]-CHA) with or without test agents in triplicate for one hour at 25° C. […] The radio-labeled ligand retained on the filter was measured by liquid scintillation spectrophotometry after shaking the filters for one hour or longer on a mechanical shaker in 10 ml of Beckman Ready-Solv HP scintillation cocktail.
Nonspecific binding was defined as the binding which occurred in the presence of 1 mM theophylline. […] The Scatchard plot was calculated by linear regression of the line obtained by plotting the amount of radioligand bound (pmoles/gram of tissue) versus [formula] […] The maximal number of binding sites (Bmax) was calculated from the Scatchard plot.

[2] = biological target: T2, adenosine A2 receptor (Rattus norvegicus, UniProt P30543); assay: Adenosine Receptor Binding, A2 Receptor Affinity (RBA2), [3H]NECA, rat striatal membranes; conditions: 4 nM [3H]NECA, 50 nM N6-cyclopentyladenosine
T2 construct: 5 mg original tissue weight of rat weight of rat striatal membranes; tissue Pel-Freez (Rogers, Arkansas); host or cells: rat brain striatum membranes (Sprague-Dawley; Long-Evans hooded rats gave essentially identical results)
Protocol: Brains from 200-500 g mixed sex Sprague-Dawley rats were purchased from Pel-Freez (Rogers, Arkansas). Fresh brains from male Long-Evans hooded rats (Blue Spruce Farms, Altamont, NY) gave essentially identical results. Brains were thawed and then kept on ice while the striata were dissected out. Striata were disrupted in 10 vol of ice-cold 50 mM Tris.HCl (pH 7.7 at 25° C., pH 8.26 at 5° C.) (Tris) for 30 seconds in a Polytron PT-10 (Brinkmann) at setting 5. The suspension was centrifuged at 50,000 xg for ten minutes, the supernatant discarded, the pellet resuspended in 10 vol ice-cold Tris as above, recentrifuged, resuspended at 1 g/5 ml, and stored in plastic vials at -70° C. (stable for at least six months). When needed, tissue was thawed at room temperature, disrupted in a Polytron, and kept on ice until used. […]
Incubations were terminated by filtration through 2.4 cm GF/B filters under reduced pressure. […] Filters were put in scintillation vials, 8 ml of Formula 947 scintillation fluid added, and the vials left overnight, shaken, and counted in a liquid scintillation counter at 40% efficiency.
Nonspecific binding was defined as binding in the presence of 100 μM N^6 -cyclopentyladenosine, and specific binding was defined as total binding minus nonspecific binding. The IC50 was calculated by weighted nonlinear least squares curve-fitting to the mass-action equation. […]

T2 sequence (P30543 whole entry): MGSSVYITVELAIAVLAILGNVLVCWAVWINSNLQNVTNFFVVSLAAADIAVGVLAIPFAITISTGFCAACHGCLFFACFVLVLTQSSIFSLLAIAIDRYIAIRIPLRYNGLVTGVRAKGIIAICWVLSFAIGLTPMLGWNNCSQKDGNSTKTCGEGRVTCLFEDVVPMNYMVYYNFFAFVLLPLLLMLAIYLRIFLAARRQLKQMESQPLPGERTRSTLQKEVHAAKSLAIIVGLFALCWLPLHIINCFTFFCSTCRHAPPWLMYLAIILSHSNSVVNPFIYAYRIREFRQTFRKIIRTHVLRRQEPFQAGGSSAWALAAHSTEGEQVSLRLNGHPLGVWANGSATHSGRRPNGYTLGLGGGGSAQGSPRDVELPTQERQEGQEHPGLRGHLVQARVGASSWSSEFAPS

C[C@H](O)CNc1ncnc2c1ncn2[C@@H]1O[C@H](CO)[C@@H](O)[C@H]1O [N^6-[(S)-2-hydroxypropyl]adenosine, N^6-[(S)-2-Hydroxypropyl]adenosine]
IC50 [1]: 0.006 µM | IC50 [2]: 14 µM
